Results reported in US7071335B2, “2-pyridinyl-1-piperazine therapeutic agents useful for treating pain” (Euro-Celtique S.A., priority 2002, dated 2006).

How the values were obtained:
Assay type in all cases: cell-based
[1] = molecular target: T1, Human VR1 Receptor (Homo sapiens, UniProt Q8NER1); assay: Inhibition of capsaicin-induced activation of VR1; settings: mean ± SEM, n = number of experiments
Source text: (§1) Methods for assaying compounds capable of inhibiting VR1 are well known to those skilled in the art, for example, those methods disclosed in U.S. Pat. No. 6,239,267 to Duckworth et al.; U.S. Pat. No. 6,406,908 to McIntyre et al.; or U.S. Pat. No. 6,335,180 to Julius et al.

[2] = molecular target: T1, Human VR1 Receptor; assay: Inhibition of pH-induced activation of VR1; settings: mean ± SEM, n = number of experiments
Source text: as §1

[3] = molecular target: T2, rat mGluR5 (Rattus norvegicus, UniProt P31424); assay: CHO assay: calcium mobilization flux (FLIPR) in CHO-rat mGluR5 cells in the presence of glutamate; settings: at a concentration of 10 μM, 10 uM glutamate
T2 construct: expressed in transfected cells; host or cells: CHO cells (CHO-rat mGluR5, kept under Geneticin selection)
Method: 40,000 CHO-rat mGluR5 cells/well were plated into 96 well plate (Costar 3409, Black, clear bottom, 96 well, tissue culture treated) for an overnight incubation in Dulbelcco's Modified Eagle's Medium (DMEM, pH 7.4) and supplemented with glutamine, 10% FBS, 1% Pen/Strep, and 500 ug/ml Geneticin. CHO-rat mGluR5 cells were washed and treated with Optimem medium and incubated for 1–4 hours prior to loading cells. […] The plates containing the CHO-rat mGluR5 cells were then transferred to Fluorometric Imaging Plate Reader (FLIPR) (commercially available from Molecular Devices Corporation of Sunnyvale, Calif.) for the assessment of calcium mobilization flux in the presence of glutamate and in the presence or absence of test compounds. After monitoring fluorescence for 15 seconds to establish a base line, DMSO solutions containing various concentrations of the test compound diluted in loading buffer (0.05 mL of 4× dilutions for the competition curves) were added to the cell plate and fluorescence was monitored for 2 minutes. […] Plate fluorescence is then monitored for an additional 60 seconds after agonist addition. […] In each experiment, fluorescence is monitored as a function of time and the data analyzed using Microsoft Excel and GraphPad Prism. […] In each experiment each data point was determined two times.

T1 sequence (Q8NER1 whole entry): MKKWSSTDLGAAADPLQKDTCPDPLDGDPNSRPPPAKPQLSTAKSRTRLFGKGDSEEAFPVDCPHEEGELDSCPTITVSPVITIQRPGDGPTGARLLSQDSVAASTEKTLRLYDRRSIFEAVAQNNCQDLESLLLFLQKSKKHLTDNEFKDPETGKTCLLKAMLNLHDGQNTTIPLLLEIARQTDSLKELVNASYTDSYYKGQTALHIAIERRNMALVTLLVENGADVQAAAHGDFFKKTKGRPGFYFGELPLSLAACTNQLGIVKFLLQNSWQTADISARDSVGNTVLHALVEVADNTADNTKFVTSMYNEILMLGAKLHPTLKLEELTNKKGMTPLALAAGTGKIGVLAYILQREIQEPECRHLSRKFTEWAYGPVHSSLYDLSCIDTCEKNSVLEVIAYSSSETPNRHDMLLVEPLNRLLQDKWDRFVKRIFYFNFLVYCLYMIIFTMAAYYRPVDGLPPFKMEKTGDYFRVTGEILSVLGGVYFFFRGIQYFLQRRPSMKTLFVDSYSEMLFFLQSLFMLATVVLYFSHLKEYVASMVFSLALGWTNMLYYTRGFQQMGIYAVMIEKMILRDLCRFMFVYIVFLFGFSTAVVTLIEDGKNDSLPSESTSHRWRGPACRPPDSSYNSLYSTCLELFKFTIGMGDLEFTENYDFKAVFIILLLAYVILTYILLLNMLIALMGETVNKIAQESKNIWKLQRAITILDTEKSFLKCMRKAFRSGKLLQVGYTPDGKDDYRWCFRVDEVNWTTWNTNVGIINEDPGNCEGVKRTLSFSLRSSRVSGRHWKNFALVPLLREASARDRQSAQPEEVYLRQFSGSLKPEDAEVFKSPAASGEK
T2 sequence (P31424 21-1203): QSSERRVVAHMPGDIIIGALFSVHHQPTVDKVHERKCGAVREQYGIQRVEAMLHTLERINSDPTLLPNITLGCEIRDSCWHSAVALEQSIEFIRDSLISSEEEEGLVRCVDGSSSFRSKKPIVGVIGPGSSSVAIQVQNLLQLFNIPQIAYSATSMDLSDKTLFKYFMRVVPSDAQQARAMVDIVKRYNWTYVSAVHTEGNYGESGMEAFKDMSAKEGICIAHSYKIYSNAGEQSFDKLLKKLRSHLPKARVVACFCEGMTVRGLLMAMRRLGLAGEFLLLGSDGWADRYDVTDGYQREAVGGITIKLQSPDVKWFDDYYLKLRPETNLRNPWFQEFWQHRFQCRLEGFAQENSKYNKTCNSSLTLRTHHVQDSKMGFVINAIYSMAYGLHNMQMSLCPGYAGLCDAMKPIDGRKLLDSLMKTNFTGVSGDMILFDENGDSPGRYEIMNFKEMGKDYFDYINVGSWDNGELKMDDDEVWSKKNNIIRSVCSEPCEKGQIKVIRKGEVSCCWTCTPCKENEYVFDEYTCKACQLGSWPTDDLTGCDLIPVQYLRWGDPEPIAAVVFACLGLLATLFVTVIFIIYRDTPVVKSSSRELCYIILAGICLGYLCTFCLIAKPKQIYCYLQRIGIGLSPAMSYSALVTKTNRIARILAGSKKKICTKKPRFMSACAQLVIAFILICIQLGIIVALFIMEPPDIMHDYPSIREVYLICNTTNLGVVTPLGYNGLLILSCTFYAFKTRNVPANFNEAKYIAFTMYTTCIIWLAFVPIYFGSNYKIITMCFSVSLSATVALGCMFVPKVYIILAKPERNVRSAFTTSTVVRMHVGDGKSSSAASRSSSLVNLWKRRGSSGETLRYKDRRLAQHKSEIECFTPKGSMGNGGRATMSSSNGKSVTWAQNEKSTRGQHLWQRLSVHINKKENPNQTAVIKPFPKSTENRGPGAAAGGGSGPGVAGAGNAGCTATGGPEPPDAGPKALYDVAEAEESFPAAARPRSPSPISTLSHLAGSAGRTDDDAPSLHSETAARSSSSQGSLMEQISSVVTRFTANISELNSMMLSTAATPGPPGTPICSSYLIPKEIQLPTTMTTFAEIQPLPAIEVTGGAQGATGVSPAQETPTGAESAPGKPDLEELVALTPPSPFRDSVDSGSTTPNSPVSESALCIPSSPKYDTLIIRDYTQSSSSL

Structure (SMILES)	IC50 [1] [nM]	IC50 [2] [nM]	inhibition of mGluR5 [3]
CC(C)(C)c1ccc(NC(=O)N2CCN(c3ncccc3F)CC2)cc1	1.3 ± 1.2	5.4 ± 2.5	–
Cc1cccc(CCNC(=O)N2CCN(c3ncccc3Cl)C[C@H]2C)c1C	–	–	inhibits
